Measured values: patent publication US5807886A, “Bicyclic amidine dervatives as inhibitors of nitric oxide synthetase” (priority 1994, dated 1998)

How the values were obtained:
[1] = target: T1, neuronal nitric oxide synthetase (Rattus norvegicus, UniProt P29476); assay: Screen A: neuronal nitric oxide synthetase inhibiting activity; type: biochemical; details: enzyme from rat hippocampus or cerebellum; 22° C., pH 7.4, 10 minutes; read-out: IC50 in Screen A (neuronal isoform)
T1 construct: Enzyme was isolated from rat hippocampus or cerebellum; from tissue; host or cells: male Sprague-Dawley rat cerebellum or hippocampus, 20,000 g supernatant
T1 sequence (P29476 whole entry, canonical isoform): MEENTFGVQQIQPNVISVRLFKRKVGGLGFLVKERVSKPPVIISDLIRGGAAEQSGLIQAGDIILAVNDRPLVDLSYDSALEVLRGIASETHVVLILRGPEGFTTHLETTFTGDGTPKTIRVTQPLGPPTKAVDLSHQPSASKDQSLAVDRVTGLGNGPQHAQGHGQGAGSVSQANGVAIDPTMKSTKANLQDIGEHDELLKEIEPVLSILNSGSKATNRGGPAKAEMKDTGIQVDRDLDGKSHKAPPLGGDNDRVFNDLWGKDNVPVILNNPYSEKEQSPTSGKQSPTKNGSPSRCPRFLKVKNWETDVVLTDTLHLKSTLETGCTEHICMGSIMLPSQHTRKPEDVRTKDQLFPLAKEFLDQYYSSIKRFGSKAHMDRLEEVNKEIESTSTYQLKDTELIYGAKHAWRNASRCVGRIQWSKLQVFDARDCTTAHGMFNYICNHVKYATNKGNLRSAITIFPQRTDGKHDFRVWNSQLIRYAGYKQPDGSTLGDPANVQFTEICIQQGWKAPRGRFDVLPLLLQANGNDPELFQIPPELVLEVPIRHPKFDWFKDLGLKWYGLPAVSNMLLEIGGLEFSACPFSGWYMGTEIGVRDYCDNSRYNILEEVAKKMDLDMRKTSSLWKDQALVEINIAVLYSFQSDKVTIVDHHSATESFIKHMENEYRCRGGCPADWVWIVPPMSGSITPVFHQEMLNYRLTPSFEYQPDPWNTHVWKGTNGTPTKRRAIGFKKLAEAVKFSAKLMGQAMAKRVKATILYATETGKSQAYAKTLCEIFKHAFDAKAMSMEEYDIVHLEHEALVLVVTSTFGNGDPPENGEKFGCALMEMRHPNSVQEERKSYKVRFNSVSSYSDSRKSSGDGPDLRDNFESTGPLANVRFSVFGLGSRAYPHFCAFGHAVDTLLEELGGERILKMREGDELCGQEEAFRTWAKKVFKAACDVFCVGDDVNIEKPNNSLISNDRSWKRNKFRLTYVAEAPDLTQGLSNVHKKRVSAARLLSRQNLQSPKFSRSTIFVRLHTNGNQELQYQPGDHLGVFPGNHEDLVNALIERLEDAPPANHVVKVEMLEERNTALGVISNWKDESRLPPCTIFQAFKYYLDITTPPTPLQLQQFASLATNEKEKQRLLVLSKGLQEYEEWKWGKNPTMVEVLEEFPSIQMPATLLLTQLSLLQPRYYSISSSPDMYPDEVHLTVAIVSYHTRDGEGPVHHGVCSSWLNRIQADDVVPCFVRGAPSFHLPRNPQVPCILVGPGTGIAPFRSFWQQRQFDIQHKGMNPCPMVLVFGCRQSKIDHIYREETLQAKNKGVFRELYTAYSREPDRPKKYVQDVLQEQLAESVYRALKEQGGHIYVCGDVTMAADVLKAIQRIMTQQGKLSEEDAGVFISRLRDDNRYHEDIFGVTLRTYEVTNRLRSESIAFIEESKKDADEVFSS
Procedure: Enzyme was isolated from rat hippocampus or cerebellum. The cerebellum or hippocampus of a male Sprague-Dawley rat (250-275 g) is removed following CO2 anaesthesia of the animal and decapitation. Cerebellar or hippocampal supernatant is prepared by homogenisation in 50 mM Tris-HCl with 1 mM EDTA buffer (pH 7.2 at 25° C.) and centifugation for 15 minutes at 20,000 g. Residual L-arginine is removed from the supernatant by chromatography through Dowex AG-50W-X8 sodium form and hydrogen form columns successively, and further centrifugation at 1000 g for 30 seconds. […]
Labelled L-citrulline is separated from labelled L-arginine by chromatography over a Dowex AG-50W-X8 200-400 mesh column. 1 ml of each terminated reaction is added to an individual 1 ml column and the eluant combined with that from two 1 ml distilled water washes and 16 ml of scintillation cocktail The L-citrulline is then quantified by scintillation counting. […]

[2] = target: T2, macrophage nitric oxide synthetase (Mus musculus, UniProt P29477); assay: Screen B: macrophage nitric oxide synthetase inhibiting activity; type: biochemical, murine; details: macrophage IC50 / neuronal IC50
T2 construct: Enzyme is prepared, after induction, from the cultured murine macrophage cell line J774A-1; endogenous in cells; host or cells: J774A-1 murine macrophages induced with LPS and IFN-gamma (lysate); cells from laboratories of the Imperial Cancer Research Fund
Source text: The enzyme nitric oxide synthetase has a number of isoforms and compounds of formula I, or pharmaceutically acceptable salts thereof, may be screened for nitric oxide synthetase inhibiting activity by procedures based on those of Bredt and Snyder in Proc. Natl. Acad. Sci. (1990) 87, 682-685 and Forstermann et. al., Eur. J. Pharm. (1992) 225, 161-165 as follows. Nitric oxide synthetase converts ^3 H-L-arginine to ^3 H-L-citrulline which can be separated by cation exchange chromatography and quantified by scintillation counting.
Enzyme is prepared, after induction, from the cultured murine macrophage cell line J774A-1 (obtained from laboratories of the Imperial Cancer Research Fund).
J774A-1 cells are cultured in Dulbecco's Modified Eagles Medium (DMEM) supplemented with 10% foetal bovine serum, 4 mM L-glutamine and antibiotics (100 units/ml penicillin G, 100 μg/ml streptomycin & 0.25 μg/ml amphotericin B).
Cells are routinely grown in 225 cm^2 flasks containing 35 ml medium kept at 37° C. and in a humidified atmosphere containing 5% CO2.
Nitric oxide synthetase is produced by cells in response to interferon-γ (IFNγ) and lipopolysaccharide (LPS). […]
Labelled L-citrulline is separated from labelled L-arginine using Dowex AG-50W. […] After allowing the samples to dry the L-citrulline is quantified by scintillation counting. […]

[3] = target: T3, endothelial nitric oxide synthetase (Homo sapiens, UniProt P29474); assay: Screen C: endothelial nitric oxide synthetase inhibiting activity; type: biochemical
T3 construct: Enzyme may be isolated from human umbilical vein endothelial cells (HUVECs); endogenous in cells; host or cells: HUVECs (cells purchased from Clonetics Corp, San Diego); CHAPS-solubilised pellet supernatant
T3 sequence (P29474 2-1203): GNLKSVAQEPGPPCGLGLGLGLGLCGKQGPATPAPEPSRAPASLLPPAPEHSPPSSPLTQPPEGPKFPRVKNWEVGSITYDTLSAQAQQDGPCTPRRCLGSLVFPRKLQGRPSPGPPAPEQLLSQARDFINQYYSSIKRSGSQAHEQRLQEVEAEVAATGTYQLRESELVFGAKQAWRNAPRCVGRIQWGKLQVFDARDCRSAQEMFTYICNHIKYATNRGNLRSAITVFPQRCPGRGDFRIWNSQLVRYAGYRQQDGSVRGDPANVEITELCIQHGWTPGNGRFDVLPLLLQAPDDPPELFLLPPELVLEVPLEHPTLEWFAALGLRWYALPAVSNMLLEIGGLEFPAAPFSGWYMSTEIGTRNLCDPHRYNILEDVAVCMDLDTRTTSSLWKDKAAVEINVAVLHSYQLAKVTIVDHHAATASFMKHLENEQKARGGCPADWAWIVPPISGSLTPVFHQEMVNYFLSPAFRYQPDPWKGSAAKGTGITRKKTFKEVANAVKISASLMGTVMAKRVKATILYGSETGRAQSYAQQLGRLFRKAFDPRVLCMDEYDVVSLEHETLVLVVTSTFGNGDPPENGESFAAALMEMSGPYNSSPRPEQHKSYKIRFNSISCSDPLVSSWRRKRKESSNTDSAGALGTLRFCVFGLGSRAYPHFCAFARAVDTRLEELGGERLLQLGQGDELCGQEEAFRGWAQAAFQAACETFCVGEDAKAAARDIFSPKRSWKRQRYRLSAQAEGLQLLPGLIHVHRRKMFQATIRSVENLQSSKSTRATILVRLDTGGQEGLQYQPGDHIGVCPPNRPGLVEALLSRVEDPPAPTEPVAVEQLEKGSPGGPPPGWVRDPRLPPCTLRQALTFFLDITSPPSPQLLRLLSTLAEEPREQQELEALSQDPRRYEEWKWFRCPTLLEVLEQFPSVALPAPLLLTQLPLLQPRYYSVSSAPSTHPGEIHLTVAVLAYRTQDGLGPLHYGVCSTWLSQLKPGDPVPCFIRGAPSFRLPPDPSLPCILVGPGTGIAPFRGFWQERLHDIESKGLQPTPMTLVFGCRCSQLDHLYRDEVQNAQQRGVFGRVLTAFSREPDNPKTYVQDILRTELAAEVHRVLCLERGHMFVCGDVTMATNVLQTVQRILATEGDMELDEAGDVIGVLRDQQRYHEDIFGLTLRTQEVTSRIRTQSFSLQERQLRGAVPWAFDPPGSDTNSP
Procedure: HUVECs were purchased from Clonetics Corp (San Diego, Calif. USA) and cultured to confluency. Cells can be maintained to passage 35-40 without significant loss of yield of nitric oxide synthetase. When cells reach confluency, they are resuspended in Dulbecco's phosphate buffered saline, centrifuged at 800 rpm for 10 mins, the cell pellet homogenised in ice-cold 50 mM Tris-HCl , 1 mM EDTA, 10% glycerol, 1 mM phenylmethylsulphonylfluoride, 2 μM leupeptin at pH 4.2. Following centrifugation at 34,000 rpm for 60 mins, the pellet is solubilised in the homogenisation buffer which also contains 20 mM CHAPS. After a 30 min incubation on ice, the suspension is centrifuged at 34,000 rpm for 30 mins. The resulting supernatant is stored at -80° C. until use. […]
Labelled L-citrulline is separated from labelled L-arginine by chromatography over a Dowex AG-50W-X8 200-400 mesh column. […] The L-citrulline is then quantified by scintillation counting. […]

SMILES	IC50 [1]	IC50 in Screen B relative to that obtained in Screen A (selectivity) [2]	IC50 in Screen C relative to that obtained in Screen A (selectivity) ([3]; endothelial IC50 / neuronal IC50)	inhibition at 1 µM ([3]; at a concentration of 1 μM, HUVEC enzyme, read-out: inhibition of nitric oxide synthetase (reference standard, Screen C))
N=C(Nc1ccc2c(c1)CC(NCc1ccccc1)C2)c1cccs1 (stereo not shown) [Example 1, N-((2-(Phenylmethyl)amino)indan-5-yl)-2-thiophenecarboximidamide dioxalate]	< 10 µM	more than 10 times	more than 10 times	–
N=C(NCCC[C@H](N)C(=O)O)N[N+](=O)[O-] [N-nitro-L-arginine, reference compound]	–	–	–	70 to 90%
